One data set concerns HIV-IIIb. As to the kind of experiment: Test A: Antiviral Assay in MT4 Cells. It counts as cell-based, HIV-1. Particulars: Human immunodeficiency virus 1, IIIB, MT4, 120 h; for inhibition at 0.2 µM: read-out: % inhibition at 0.2 μM; for inhibition at 2 µM: read-out: % inhibition at 2 μM. The method, then:
Test A: Antiviral Assay in MT4 Cells
MT-4 cells were next mixed with HIV-IIIb at an m.o.i of 0.003 for 1 hour, after which time 35 μL of virus/cell mixture (2000 cells) was immediately added to each well containing 40 μL of diluted compound. The plates were then incubated at 37° C. for 5 days. […] Cell lysis was carried out by incubating at room temperature for 10 min and then chemiluminescence was read.

Data set [1] can be described thus: Test B: Cytotoxicity Assay. It counts as cell-based. Particulars: human, uninfected MT-4 cells, same protocol as Test A. Put shortly:
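Uninfected MT-4 cells (2000 per well) incubated with diluted compound at 37° C. for 5 days, following the antiviral protocol without HIV-IIIb.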

The structures appear in SMILES notation.

As for `Cn1nc(NS(C)(=O)=O)c2cccc(-c3ccc(C#CC(C)(C)CO)nc3[C@H](Cc3cc(F)cc(F)c3)NC(=O)Cn3nc(C(F)(F)F)c4c3C(F)(F)[C@@H]3C[C@H]43)c21` [Compound 63, 2-((3bS,4aR)-5,5-difluoro-3-(trifluoromethyl)-3b,4,4a,5-tetrahydro-1H-cyclopropa[3,4]cyclopenta[1,2-c]pyrazol-1-yl)-N—((S)-2-(3,5-difluorophenyl)-1-(6-(4-hydroxy-3,3-dimethylbut-1-yn-1-yl)-3-(1-methyl-3-(methylsulfonamido)-1H-indazol-7-yl)pyridin-2-yl)ethyl)acetamide], in the data set with HIV-IIIb, the inhibition (usually the change of the read-out against control, counted positive when it falls) at 0.2 µM was found to be 91% and the inhibition at 2 µM was 91%. Further, in data set [1], half-maximal cytotoxicity (CC50 at 5 days) was put at 8.89 µM.

With `Cn1nc(N)c2c(Cl)ccc(-c3ccc(C#CC(C)(C)O)nc3[C@H](Cc3cc(F)cc(F)c3)NC(=O)Cn3nc(C(F)F)c4c3C(F)(F)[C@@H]3C[C@H]43)c21` [Compound 57, N—((S)-1-(3-(3-amino-4-chloro-1-methyl-1H-indazol-7-yl)-6-(3-hydroxy-3-methylbut-1-yn-1-yl)pyridin-2-yl)-2-(3,5-difluorophenyl)ethyl)-2-((3bS,4aR)-3-(difluoromethyl)-5,5-difluoro-3b,4,4a,5-tetrahydro-1H-cyclopropa[3,4]cyclopenta[1,2-c]pyrazol-1-yl)acetamide], in the data set with HIV-IIIb, the inhibition at 0.2 µM came to 93% and the inhibition at 2 µM turned out to be 93%. Moreover, in data set [1], the CC50 (as a rule, the concentration giving 50% cytotoxicity) at 5 days amounted to 7.63 µM.

For the compound `Cn1nc(NS(C)(=O)=O)c2cccc(-c3ccc(C#CC(C)(C)O)nc3[C@H](Cc3cc(F)cc(F)c3)NC(=O)Cn3nc(C(F)(F)F)c4c3C3CC3CO4)c21` (stereo partly drawn) [Compound 67I, N—((S)-2-(3,5-difluorophenyl)-1-(6-(3-hydroxy-3-methylbut-1-yn-1-yl)-3-(1-methyl-3-(methylsulfonamido)-1H-indazol-7-yl)pyridin-2-yl)ethyl)-2-(3-(trifluoromethyl)-5,5a,6,6a-tetrahydro-1H-cyclopropa[4,5]pyrano[3,2-c]pyrazol-1-yl)acetamide], in the data set with HIV-IIIb, the inhibition at 0.2 µM came to 94% and the inhibition at 2 µM is 94%. This compound came in with a cytotoxic concentration (CC50) at 5 days in data set [1] of 21.5 µM.

For `Cc1nc(NS(C)(=O)=O)c2cccc(-c3ccc(C#CC(C)(C)O)nc3[C@H](Cc3cc(F)cc(F)c3)NC(=O)Cn3nc(C(F)(F)F)c4c3C(F)(F)[C@@H]3C[C@H]43)n12` [Compound 121, 2-((3bS,4aR)-5,5-difluoro-3-(trifluoromethyl)-3b,4,4a,5-tetrahydro-1H-cyclopropa[3,4]cyclopenta[1,2-c]pyrazol-1-yl)-N—((S)-2-(3,5-difluorophenyl)-1-(6-(3-hydroxy-3-methylbut-1-yn-1-yl)-3-(3-methyl-1-(methylsulfonamido)imidazo[1,5-a]pyridin-5-yl)pyridin-2-yl)ethyl)acetamide], in the data set with HIV-IIIb, the inhibition at 0.2 µM is 46% and the inhibition at 2 µM turned out to be 98%. For the same compound, it took 9.18 µM to reach half-maximal cytotoxicity in data set [1] (CC50 at 5 days).

Take `COCCC(=O)Nc1nn(C)c2c(-c3ccc(C#CC(C)(C)O)nc3[C@H](Cc3cc(F)cc(F)c3)NC(=O)Cn3nc(C(F)F)c4c3C(F)(F)[C@@H]3C[C@H]43)ccc(Cl)c12` [Compound 85, N-(4-chloro-7-(2-((S)-1-(2-((3b-S,4aR)-3-(difluoromethyl)-5,5-difluoro-3b,4,4a,5-tetrahydro-1H-cyclopropa[3,4]cyclopenta[1,2-c]pyrazol-1-yl)acetamido)-2-(3,5-difluorophenyl)ethyl)-6-(3-hydroxy-3-methylbut-1-yn-1-yl)pyridin-3-yl)-1-methyl-1H-indazol-3-yl)-3-methoxypropanamide]: in the data set with HIV-IIIb, the inhibition at 0.2 µM came to 96% and the inhibition at 2 µM amounted to 96%. Further, half-maximal cytotoxicity in data set [1] (CC50 at 5 days) was put at 7.85 µM.

With `Cn1nc(NS(C)(=O)=O)c2c(Cl)ccc(-c3ccc(C#CC(C)(C)O)nc3[C@H](Cc3cc(F)cc(F)c3)NC(=O)Cn3nc(C(F)F)c4c3C3CC3CC4)c21` (stereo partly drawn) [Compound 83, N—((S)-1-(3-(4-chloro-1-methyl-3-(methylsulfonamido)-1H-indazol-7-yl)-6-(3-hydroxy-3-methylbut-1-yn-1-yl)pyridin-2-yl)-2-(3,5-difluorophenyl)ethyl)-2-(3-(difluoromethyl)-5,5a,6,6a-tetrahydrocyclopropa[g]indazol-1(4H)-yl)acetamide], in the data set with HIV-IIIb, the inhibition at 0.2 µM turned out to be 94% and the inhibition at 2 µM was 94%. For the same compound, the CC50 at 5 days in data set [1] turned out to be 9.94 µM.

As to `CC(C)(O)C#Cc1ccc(-c2ccc(Cl)n3c(NS(C)(=O)=O)nnc23)c([C@H](Cc2cc(F)cc(F)c2)NC(=O)Cn2nc(C(F)F)c3c2C(F)(F)[C@@H]2C[C@H]32)n1` [Compound 110E, N—((S)-1-(3-(5-chloro-3-(methylsulfonamido)-[1,2,4]triazolo[4,3-a]pyridin-8-yl)-6-(3-hydroxy-3-methylbut-1-yn-1-yl)pyridin-2-yl)-2-(3,5-difluorophenyl)ethyl)-2-((3b-S,4aR)-3-(difluoromethyl)-5,5-difluoro-3b,4,4a,5-tetrahydro-1H-cyclopropa[3,4]cyclopenta[1,2-c]pyrazol-1-yl)acetamide], in the data set on HIV-IIIb, the inhibition at 0.2 µM was 15% and the inhibition at 2 µM is 98%. Further, in data set [1], the CC50 at 5 days is > 53.2 µM.

Regarding `Cn1nc(NS(C)(=O)=O)c2c(Cl)ccc(-c3ccc(C#CC(C)(C)O)nc3[C@H](Cc3cc(F)cc(F)c3)NC(=O)Cc3cccc(Cl)c3Cl)c21` [Compound 129, (S)—N-(1-(3-(4 chloro-1-methyl-3-(methylsulfonamido)-1H-indazol-7-yl)-6-(3-hydroxy-3-methylbut-1-yn-1-yl)pyridin-2-yl)-2-(3,5-difluorophenyl)ethyl)-2-(2,3-dichlorophenyl)acetamide], in the data set with HIV-IIIb, the inhibition at 0.2 µM stood at 54% and the inhibition at 2 µM was found to be 82%. The compound also came in with a CC50 at 5 days in data set [1] of 12.1 µM.

As for `Cn1nc(NC(=O)c2ccno2)c2c(Cl)ccc(-c3ccc(C#CC(C)(C)O)nc3[C@H](Cc3cc(F)cc(F)c3)NC(=O)Cn3nc(C(F)F)c4c3C(F)(F)[C@@H]3C[C@H]43)c21` [Compound 87, N-(4-chloro-7-(2-((S)-1-(2-((3b-S,4aR)-3-(difluoromethyl)-5,5-difluoro-3b,4,4a,5-tetrahydro-1H-cyclopropa[3,4]cyclopenta[1,2-c]pyrazol-1-yl)acetamido)-2-(3,5-difluorophenyl)ethyl)-6-(3-hydroxy-3-methylbut-1-yn-1-yl)pyridin-3-yl)-1-methyl-1H-indazol-3-yl)isoxazole-5-carboxamide], in the data set on HIV-IIIb, the inhibition at 0.2 µM came out at 95% and the inhibition at 2 µM is 96%. Further, the CC50 at 5 days in data set [1] was found to be 6.8 µM.

`Cn1nc(NC(=O)CNC2CC2)c2c(Cl)ccc(-c3ccc(C#CC(C)(C)O)nc3[C@H](Cc3cc(F)cc(F)c3)NC(=O)Cn3nc(C(F)F)c4c3C(F)(F)[C@@H]3C[C@H]43)c21` [Compound 102, N—((S)-1-(3-(4-chloro-3-(2-(cyclopropylamino)acetamido)-1-methyl-1H-indazol-7-yl)-6-(3-hydroxy-3-methylbut-1-yn-1-yl)pyridin-2-yl)-2-(3,5-difluorophenyl)ethyl)-2-((3b-S,4aR)-3-(difluoromethyl)-5,5-difluoro-3b,4,4a,5-tetrahydro-1H-cyclopropa[3,4]cyclopenta[1,2-c]pyrazol-1-yl)acetamide]: in the data set with HIV-IIIb, the inhibition at 0.2 µM was determined as 100% and the inhibition at 2 µM was 100%. The CC50 at 5 days in data set [1] amounted to 5.82 µM.

The values above are taken from patent US20140303164A1, “THERAPEUTIC COMPOUNDS” (Gilead Sciences, Inc., priority 2013, published 2014).
